# Key:
# Assay type in all cases: in vivo
# male Cy/+ rat [1] = assay: Blood laboratory values in male Cy/+ rats treated from week 20; details: for BUN / Calcium / Phosphorus / PTH: 38 week time point, treatment from week 20; for PTH: Compound A 0.05% w/w in chow, 3% Ca gluconate in water, mean ± SD
# Source text: (§1) The Cy rat is a Han:SPRD rat with a spontaneous genetic mutation called Cy. These animals develop progressive kidney disease due to the formation of multiple kidney tubule cysts that arise from both the proximal and later the distal tubule. The colony of rats has been maintained through successive breeding of two heterozygous Cy/+ rats. This is an autosomal dominant gene, such that at birth, ¼ of the animals are normal, ½ are heterozygotes (Cy/+) and ¼ are homozygotes (Cy/Cy). Homozygotes (Cy/Cy) of either sex are easily identified after approximately 10 days of age by abdominal palpation and elevations in blood urea nitrogen (BUN), a finding used to verify parental heterozygosity for PKD. Homozygous Cy/Cy rats develop massively enlarged kidneys and severe azotemia and die by 4 weeks of age. Heterozygote male animals develop progressive chronic kidney disease (CKD) with rise in blood urea nitrogen (BUN) by 10 weeks and death from uremia by 40-50 weeks. Heterozygote female animals develop progressive CKD with rise in BUN not detected until 20 weeks, with death at 80 weeks. […] Average food intake was 50 g/kg/day. At the time of sacrifice, rats were anesthetized with sodium pentobarbitol ([…], i.p.) and weighed. Blood was obtained for determination of serum creatinine, BUN, intact PTH, Ca and PO4. The left kidney was removed, weighed and frozen in liquid nitrogen for subsequent batch analyses. The right kidney was perfusion fixed with 4% paraformaldehyde in phosphate buffer (ph 7.4). The tissue was embedded in paraffin for histological studies. Cyst volume density was determined by point count stereology from randomly selected fields from hematoxylin and cosin (H&E) stained slides. Fibrosis was graded semi-quantitatively (scored 0-4+) from picrosirius red stained slides. The reviewer was blinded to the treatment group. Both measure were also standardized by body weight (for cyst volume) or kidney weight (for fibrosis). Plasma urea and creatinine were determined using colorimetric assays (Urea-Sigma 640 creatinine kit). Intact PTH was determined by ELISA; Alpacoa, and Ca and PO4 were done with using colorimeteric analyses (Sigma). Cy−/+ (cystic) male rats were assigned to one of four treatment groups (Table 5) and were phenotyped (by BUN) at 10 weeks and again at 20 weeks to ensure animals were cystic. […] Comparator groups included Compound A with calcium in the drinking water versus calcium alone. These comparator groups allow differentiation of the effects of changes in PTH and calcium from a direct action of the calcimimetic. FIG. 1 schematically represents the study design. At 10 weeks, animals were phenotyped. At 20 weeks, animals were started on the treatment arm. Half the animals were sacrificed at 34 weeks, half the animals were sacrificed 38 weeks. At each time point, samples from 8 animals were perfusion fixed with paraformaldehyde for CT scan, bone histology and aorta histology, samples from 8 animals were saline perfused for HCl extraction to determine calcium and phosphate content, and blood samples from 16 animals were collected for blood tests (PTH, calcium, phosphorus, BUN). Animals in the paraformaldehyde fixation group received tetracycline administration four and one week prior to sacrifice to label the bone for morphometric analyses. For the purpose of this application, only the laboratory and kidney end points will be presented. All data was analyzed by a statistician. The BUN was analyzed only at week 20 and end point (week 34 or 38) and was analyzed by ANCOVA adjusting for baseline (week 20) values. The PTH, calcium, and phosphorus were analyzed at baseline (week 20), a mid point, and end point (week 34, 38). These values were compared by a mixed model adjusting for baseline values and time point. The kidney assessments were only measured at end point at the time of sacrifice, and therefore the measures were compared by ANCOVA and within group comparisons.
# male Cy/+ rat [2] = assay: Kidney assessment (cyst volume, fibrosis, kidney weight, histology) in male Cy/+ rats; details: for Cyst Vol / Cyst Vol as a % of BW / Total Kidney weight: at sacrifice; for Cyst Vol / Cyst Vol as a % of BW / Total Kidney weight / Fibrosis Score: n = 7-8, mean ± SD; for Histologic appearance of the cysts (FIG. 7): representative kidney sections, compared with control cystic animals; for Fibrosis Score: semi-quantitative score 0-4+, picrosirius red
# Source text: as §1, with “fibrosis). Four micron transverse tissue section of the kidney, including cortex” for “fibrosis). Plasma urea”, “and medulla, was stained with hematoxylin-cosin. Five fields/sections, from cortex through outer medulla,” for “and creatinine”, “were evaluated for the degree of cystic change. Other sections were stained with picrosirius red for the evaluation of fibrosis. Fibrosis” for “were determined using colorimetric assays (Urea-Sigma 640 creatinine kit). Intact PTH”, “was scored (0-4+) for the relative amount of collagen within the interstitium from picrosirius red staining of collagen fibers. These assessments are the standard methods used to assess response to therapy in animal models of kidney disease (Gattone et al, Nature Medicine 9: 1323-6, 2003).” for “was determined by ELISA; Alpacoa, and Ca and PO4 were done with using colorimeteric analyses (Sigma).”, “values. […]” for “values. The PTH, calcium, and phosphorus were analyzed at baseline (week 20), a mid point, and end point (week 34, 38). These values were compared by a mixed model adjusting for baseline values and time point. The kidney assessments were only measured at end point at the time of sacrifice, and therefore the measures were compared by ANCOVA and within group comparisons.”
# male Cy/+ rat [3] = assay: as above; details: ANOVA with post group comparisons, all p<0.01, HCl
compound,measurement,setting,value
"O=C([O-])[C@H](O)[C@@H](O)[C@H](O)[C@H](O)CO.O=C([O-])[C@H](O)[C@@H](O)[C@H](O)[C@H](O)CO.[Ca+2] [Ca alone, reference compound]",BUN,male Cy/+ rat [1],69 ± 18 mg/dL
same,Calcium,male Cy/+ rat [1],11.2 ± 1.5 mg/dL
same,Phosphorus,male Cy/+ rat [1],4.3 ± 0.8 mg/dL
same,PTH,male Cy/+ rat [1],39 ± 23 pg/mL
same,Change in BUN (week 20 to week 38) = Delta BUN,male Cy/+ rat [1],27 ± 11 mg/dL
same,Cyst Vol,male Cy/+ rat [2],4.0 ± 0.9 cc
same,Cyst Vol as a % of BW,male Cy/+ rat [2],0.9 ± 0.2%
same,Total Kidney weight,male Cy/+ rat [2],10.1 ± 1.4 g
same,Histologic appearance of the cysts (FIG. 7),male Cy/+ rat [2],cysts are a little smaller than control animals but there appears to be a similar number
same,Fibrosis Score,male Cy/+ rat [2],2.8 ± 0.2
"COc1cccc([C@@H](C)NCCCc2ccccc2Cl)c1.Cl [Compound A, N-(3-[2-chlorophenyl]-propyl)-R-α-methyl-3-methoxybenzylamine HCl]",BUN,male Cy/+ rat [1],79 ± 21 mg/dL
same,Calcium,male Cy/+ rat [1],8.2 ± 1.5 mg/dL
same,Phosphorus,male Cy/+ rat [1],5.9 ± 1.4 mg/dL
same,PTH,male Cy/+ rat [1],131 ± 156 pg/mL
same,Change in BUN (week 20 to week 38) = Delta BUN,male Cy/+ rat [1],31 ± 15 mg/dL
same,Cyst Vol,male Cy/+ rat [2],3.1 ± 0.55 cc
same,Cyst Vol as a % of BW,male Cy/+ rat [2],0.6 ± 0.1%
same,Total Kidney weight,male Cy/+ rat [2],9.5 ± 1.4 g
same,Histologic appearance of the cysts (FIG. 7),male Cy/+ rat [2],noticeable decrease in cyst size and number
same,Fibrosis Score,male Cy/+ rat [2],2.6 ± 0.2
same,Cyst volume and fibrosis compared to control (FIGS. 3-6),male Cy/+ rat [3],reduces cyst volume and fibrosis
same,Cyst volume and fibrosis compared to control (FIGS. 3-6),male Cy/+ rat [3]; listed as compound A,magnitude was significantly greater
